Laboratory results as given in patent publication US6476077B1, “N-(2-phenyl-4-amino-butyl)-1-naphthamides as neurokinin-1 receptor antagonists” (Astrazeneca AB, priority 1999, dated 2002).

Molecular target: T1, NK1 receptor (Oryctolagus cuniculus, UniProt G1SEI7)
T1 construct: The pulmonary arteries are isolated from the rest of the tissues and cut in half to serve as pairs; from tissue; host or cells: rabbit pulmonary artery rings (male New Zealand white rabbit)
Assay: Rabbit Pulmonary Artery: NK1 in vitro functional assay (Test C)
Assay type: biochemical
Conditions: rabbit pulmonary artery rings; antagonism of relaxation by agonist ASMSP; -log molar KB; read-out: NK1 pKb (Test C) (converted)
Protocol: Rabbit Pulmonary Artery: NK1 in vitro functional assay (Test C)
The ability of a Compound of the invention to antagonize the action of the agonist Ac-[Arg^6, Sar^9, Met(O2)^11]
Male New Zealand white rabbits are euthanized via i.v. injection into an ear vein with 60 mg/kg Nembutal (50 mg/ml). Preceding the Nembutal into the vein is Heparin (1000 units/ml) at 0.0025 ml/kg for anticoagulant purposes. The chest cavity is opened from the top of the rib cage to the sternum and the heart, lungs and part of the trachea are removed. The pulmonary arteries are isolated from the rest of the tissues and cut in half to serve as pairs.
The segments are suspended between stainless steel stirrups, so as not to remove any of the endothelium, and placed in water-jacketed (37.0° C.) tissue baths containing physiological salt solution of the following composition (mM): NaCl, 118.0; KCl, 4.7; CaCl2, 1.8; MgCl2, 0.54; NaH2PO4, 1.0; NaHCO3, 25.0; glucose, 11.0; indomethacin, 0.005(to inhibit cyclooxygenase); and dl-Propranolol, 0.001(to block β receptors); gassed continuously with 95% O2-5% CO2. Responses are measured on a Grass polygraph via Grass FT-03 transducers and the electrical signals (data) acquired using a Mi^2 software/hardware system for subsequent conversion to measures of relaxation. […]

T1 sequence (G1SEI7 1-407): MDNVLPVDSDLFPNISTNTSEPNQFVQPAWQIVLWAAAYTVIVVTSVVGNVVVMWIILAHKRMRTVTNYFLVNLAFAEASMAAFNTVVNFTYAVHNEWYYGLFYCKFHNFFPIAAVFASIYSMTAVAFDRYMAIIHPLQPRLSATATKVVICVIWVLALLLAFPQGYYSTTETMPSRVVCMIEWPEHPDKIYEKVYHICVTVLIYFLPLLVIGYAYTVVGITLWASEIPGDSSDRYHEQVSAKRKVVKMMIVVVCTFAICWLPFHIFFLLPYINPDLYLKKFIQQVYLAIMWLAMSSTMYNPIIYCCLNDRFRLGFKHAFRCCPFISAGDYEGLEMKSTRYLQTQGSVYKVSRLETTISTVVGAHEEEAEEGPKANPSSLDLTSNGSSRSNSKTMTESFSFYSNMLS

SMILES	Kb [nM]
COc1c(C#N)cc2ccccc2c1C(=O)N(C)CC(CCN1CCOCC1)c1ccc(Cl)c(Cl)c1 (centres unmarked) [Example 4]	5.01
COc1c(C#N)cc2ccccc2c1C(=O)N(C)CC(CCN(C)C)c1ccc(Cl)c(Cl)c1 (centres unmarked) [Example 6]	2
